{"source": "paper PMC7312733", "about": "“From Graphite to Laccase Biofunctionalized Few-Layer Graphene: A “One Pot” Approach Using a Chimeric Enzyme” (International Journal of Molecular Sciences, 2020)", "target": "T1, POXA1b (Pleurotus ostreatus, UniProt O60199)", "T1 construct": "wild-type laccase secreted by Pichia pastoris; concentrated and dialysed supernatant, not further purified", "T1 sequence (O60199 21-533)": "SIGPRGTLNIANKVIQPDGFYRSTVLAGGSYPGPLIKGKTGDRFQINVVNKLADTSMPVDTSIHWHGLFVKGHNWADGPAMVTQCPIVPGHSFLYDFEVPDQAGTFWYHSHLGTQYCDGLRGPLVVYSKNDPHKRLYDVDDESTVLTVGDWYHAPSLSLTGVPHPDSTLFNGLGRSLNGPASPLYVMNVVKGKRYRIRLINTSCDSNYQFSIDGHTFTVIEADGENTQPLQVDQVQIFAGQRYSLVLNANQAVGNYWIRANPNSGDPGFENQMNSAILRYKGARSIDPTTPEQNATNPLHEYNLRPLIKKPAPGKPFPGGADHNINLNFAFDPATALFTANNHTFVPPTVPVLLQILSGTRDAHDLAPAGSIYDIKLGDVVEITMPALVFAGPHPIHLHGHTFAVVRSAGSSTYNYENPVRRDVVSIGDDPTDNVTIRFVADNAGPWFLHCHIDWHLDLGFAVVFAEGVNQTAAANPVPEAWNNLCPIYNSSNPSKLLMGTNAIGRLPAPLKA", "assay": "spectrophotometric oxidation assay at […] nm", "assay_type": "biochemical", "conditions": "2 mM ABTS, 0.1 M sodium citrate pH 3.0, room temperature"}
{"smiles": "CCn1c(=NN=c2sc3cc(S(=O)(=O)O)ccc3n2CC)sc2cc(S(=O)(=O)O)ccc21", "note": "[ABTS, 2,2′-azino-bis(3-ethylbenzothiazoline-6-sulphonic acid)]", "values": [{"measurement": "spectrophotometric oxidation assay at 420 nm", "value": "The laccase activity was assayed at room temperature, monitoring the oxidation of ABTS"}]}
